Earlier results as cited in patent publication US8029830B2, “Composition and method for promoting internal health and external appearance” (Nuvocare Health Services Inc., priority 2008, dated 2011).
Like-named read-outs stand apart in the source and are kept apart here. Blank lines part the entries; values can stand above or below the compound they belong to.

Key:
healthy volunteers = conditions: daily oral, 8 weeks
[1] = test system: persons with type 2 diabetes mellitus
thymocytes = conditions: irradiated (6 Gy)
[2] = in vitro
macrophage cultures = conditions: impairment induced by phorbol esters
older and younger women = conditions: following caffeine ingestion
rats = conditions: rat, in vivo
[3] = human, in vivo
[4] = test system: lean volunteers and post-obese subjects
pigs = conditions: pretreatment; hyperbaric oxygen (HBO)
male subjects = conditions: cycling capacity
[5] = 28 days of supplementation
healthy human volunteers = conditions: at the end of the treatment period
sedentary human subjects = conditions: for body fat percentage, body fat mass and lean body mass: oral ingestion for 12 weeks
[6] = test system: rat model of diabetic neuropathy; conditions: intraperitoneal treatment for 2 weeks
[7] = test system: human plasma, blood platelets and lymphocytes
rat kidney fibroblasts = conditions: UVA light
mice = conditions: topical application

Compound: [Zn] [zinc]
plasma levels of lipid peroxidation products and DNA adducts (healthy volunteers): decreased
decrease of plasma TBARS ([1]; after six months): 15%
plasma zinc values ([1]; after three and six months of supplementation, all subjects): greater than 10.7 micro mol/L

Compound: CC[C@H](CC[C@@H](C)[C@H]1CC[C@H]2[C@@H]3CC=C4C[C@@H](O)CC[C@]4(C)[C@H]3CC[C@]12C)C(C)C [beta-sitosterol]
activities of antioxidant enzymes (SOD, CAT, GPx) (thymocytes): increasing
intracellular reactive oxygen species (ROS) (thymocytes): attenuating
irradiation-induced cell death and nuclear DNA strand breaks (thymocytes): decreased
radical scavenging [2]: modest radical scavenger
glutathione/oxidized glutathione ratio (macrophage cultures): reverts the impairment

Compound: Cn1c(=O)c2c(ncn2C)n(C)c1=O [caffeine]
energy expenditure (older and younger women): increased energy expenditure significantly
neurodegeneration (rats): protective effects
energy expenditure [3]: increased energy expenditure dose dependently
subsequent 12-h night EE ([4]; in vivo): no influence
increase in daily EE ([4]; lean volunteers): 150 kcal
increase in daily EE ([4]; post-obese subjects): 79 kcal
increase of energy expenditure (EE) ([4]; repeated administration at 2-hour intervals over a 12-hour day period, two subject groups): 8-11%

Compound: superoxide dismutase
DNA strand-break damage (pigs): protected against DNA strand-break damage

Compound: NCCC(=O)O [beta-alanine]
muscle carnosine level and total work done (male subjects): significant muscle carnosine level increases, as well as an increase in total work done
increase in PWCFT [5]: 14.5%
onset of neuromuscular fatigue and ventilatory threshold (women subjects; 4 weeks, submaximal workloads): delayed
time-to-exhaustion (women subjects; maximal cycle ergometry performance): increased
muscle carnosine levels (vastus lateralis): significant increases

Compound: vitamin E
decrease of urine lipid peroxidation products (healthy human volunteers): 27%

Compound: C=C[C@@]1(C)CC(=O)[C@]2(O)[C@@]3(C)[C@@H](O)CCC(C)(C)[C@@H]3[C@H](O)[C@H](OC(C)=O)[C@@]2(C)O1 [forskholin]
lean body mass gained, on average (sedentary human subjects; in the course of the study): 8.2 pounds
body fat percentage, body fat mass and lean body mass (sedentary human subjects): significantly decrease body fat percentage while increasing lean body mass
body fat percentage, body fat mass and lean body mass (sedentary human subjects; listed as forkohlin): decreasing body fat percentage and body fat mass

Compound: Oc1ccc(C=Cc2cc(O)cc(O)c2)cc1 [resveratrol]
pathologies associated with diabetic neuropathy [6]: protective effects
oxidative stress levels in plasma ([7]; after incubation with platinum compounds): distinct reduction
biomarker of lipid peroxidation ([7]; control blood platelets and platelets treated with platinum compounds): decreased the production
DNA damage (measured by comet assay) ([7]; lymphocytes, vs platinum compounds without resveratrol): significant decrease

plasma astaxanthin levels (healthy subjects; in vivo): significantly elevated
Compound: CC1=C(/C=C/C(C)=C/C=C/C(C)=C/C=C/C=C(C)/C=C/C=C(C)/C=C/C2=C(C)C(=O)[C@@H](O)CC2(C)C)C(C)(C)C[C@H](O)C1=O [astaxanthin]
plasma 12- and 15-hydroxy fatty acids (healthy subjects; during supplementation): reduced significantly
tolerability (healthy subjects; in vivo): well tolerated
improvement in skin-surface-moisture (middle-aged women; oral delivery, after 6 weeks): 52%
reduction in wrinkles (middle-aged women; oral delivery, after 6 weeks): 54%
fine lines and wrinkles, elasticity and moisture content (middle-aged women; six weeks, instrumentation and dermatologist's review): significant improvements
indices of oxidative stress (CAT, SOD activities, TBARS) (rat kidney fibroblasts): inhibit these indices of oxidative stress
protective properties compared to beta-carotene and lutein (rat kidney fibroblasts): superior protective properties

Compound: epigallocatechin-3-gallate [EGCG]
UVB-induced skin tumor development (mice): prevents UVB-induced skin tumor development
